Reference: the NIST ThermoML archive (doi:10.1016/j.jct.2015.03.004)

What was measured:
[1] = 101.33 kPa, Liquid; for speed of sound: Sing-around technique in a fixed-path interferometer; for mass density: Vibrating tube method
[2] = refractive index (Na D-line) (dimensionless); conditions: 298.15 K; 101.33 kPa; Liquid; Standard Abbe refractometry
[3] = refractive index (Na D-line) (dimensionless); mn = molality of the nth substance listed, in mol/kg; conditions: 298.15 K, 101.33 kPa, Liquid, Standard Abbe refractometry
[4] = mn = molality of the nth substance listed, in mol/kg; conditions: 298.15 K, 101.33 kPa, Liquid; for speed of sound: Sing-around technique in a fixed-path interferometer; for mass density: Vibrating tube method

CCOS(=O)(=O)[O-].CCn1cc[n+](C)c1 [1-ethyl-3-methylimidazolium ethyl sulfate]
[1], 298.15 K
Conditions | mass density [kg/m3] | speed of sound [m/s]
– | 1237.72 | 1680.2

Conditions | refractive index
[2] | 1.4784

CCOS(=O)(=O)[O-].CCn1cc[n+](C)c1 [1-ethyl-3-methylimidazolium ethyl sulfate] + C1CCCCC1
m1 = 0.0999
Conditions | mass density [kg/m3] | refractive index | speed of sound [m/s]
[3] | – | 1.4237 | –
[4] | 773.884 | – | 1254.3

CCCCCCn1cc[n+](C)c1.[Br-] [3-hexyl-1-methyl-1H-imidazolium bromide]
[1], 298.15 K
Conditions | mass density [kg/m3] | speed of sound [m/s]
– | 1223.81 | 1587.5

Conditions | refractive index
[2] | 1.5308

CCCCCCn1cc[n+](C)c1.[Br-] [3-hexyl-1-methyl-1H-imidazolium bromide] + C1CCCCC1
m1 = 0.0999
Conditions | mass density [kg/m3] | refractive index | speed of sound [m/s]
[3] | – | 1.4236 | –
[4] | 773.932 | – | 1254.3

CCCCCCn1cc[n+](C)c1.[Br-] [3-hexyl-1-methyl-1H-imidazolium bromide] + CCCCCC
m1 = 0.1
Conditions | mass density [kg/m3] | refractive index | speed of sound [m/s]
[3] | – | 1.3737 | –
[4] | 655.221 | – | 1077.4

C1CCCCC1 [cyclohexane]
[1], 298.15 K
Conditions | mass density [kg/m3] | speed of sound [m/s]
– | 773.87 | 1253.7

Conditions | refractive index
[2] | 1.4235

C1CCCCC1 [cyclohexane] + c1ccsc1
m2 = 0
Conditions | mass density [kg/m3] | refractive index | speed of sound [m/s]
[3] | – | 1.4235 | –
[4] | 773.87 | – | 1253.7

CCCCCC [hexane]
[1], 298.15 K
Conditions | mass density [kg/m3] | speed of sound [m/s]
– | 655.175 | 1077.2

Conditions | refractive index
[2] | 1.3722

CCCCCC [hexane] + c1ccsc1
m2 = 0
Conditions | mass density [kg/m3] | refractive index | speed of sound [m/s]
[3] | – | 1.3722 | –
[4] | 655.175 | – | 1077.2

c1ccsc1 [thiophene]
[1]
Conditions | mass density [kg/m3] | speed of sound [m/s]
298.15 K | 1058.56 | 1259
303.15 K | – | 1258.7

Conditions | refractive index
[2] | 1.5252

c1ccsc1 [thiophene] + C1CCCCC1
Conditions | mass density, [4] [kg/m3] | refractive index, [3] | speed of sound, [4] [m/s]
m1 = 0.0404 | 774.512 | 1.424 | 1253.4
m1 = 0.0503 | 774.668 | 1.4241 | 1253.4
m1 = 0.0602 | 774.824 | 1.4242 | 1253.3
m1 = 0.0703 | 774.983 | 1.4243 | 1253.2
m1 = 0.0803 | 775.14 | 1.4244 | 1253.2
m1 = 0.0902 | 775.295 | 1.4245 | 1253.1
m1 = 0.1003 | 775.452 | 1.4246 | 1253
m1 = 0.1103 | 775.608 | 1.4247 | 1252.9
m1 = 0.1203 | 775.764 | 1.4248 | 1252.9
m1 = 0.1303 | 775.917 | 1.4249 | 1252.8
m1 = 0.1402 | 776.075 | 1.425 | 1252.7
m1 = 0.1503 | 776.227 | 1.4251 | 1252.6
m1 = 0.1603 | 776.38 | 1.4252 | 1252.6
m1 = 0.1702 | 776.53 | 1.4253 | 1252.5
m1 = 0.1802 | 776.684 | 1.4254 | 1252.4

c1ccsc1 [thiophene] + CCCCCC
Conditions | mass density, [4] [kg/m3] | refractive index, [3] | speed of sound, [4] [m/s]
m1 = 0.0303 | 655.82 | 1.3725 | 1077.3
m1 = 0.0354 | 655.927 | 1.3726 | 1077.3
m1 = 0.0403 | 656.03 | 1.3727 | 1077.3
m1 = 0.0453 | 656.133 | 1.3728 | 1077.3
m1 = 0.0504 | 656.239 | 1.3729 | 1077.4
m1 = 0.0554 | 656.34 | 1.373 | 1077.4
m1 = 0.0603 | 656.441 | 1.3731 | 1077.4
m1 = 0.0654 | 656.545 | 1.3732 | 1077.4
m1 = 0.0704 | 656.646 | 1.3733 | 1077.5
m1 = 0.0753 | 656.745 | 1.3734 | 1077.5
m1 = 0.0804 | 656.847 | 1.3735 | 1077.5
m1 = 0.0852 | 656.945 | 1.3736 | 1077.6
m1 = 0.0903 | 657.046 | 1.3737 | 1077.6
m1 = 0.0954 | 657.146 | 1.3738 | 1077.6
m1 = 0.1004 | 657.243 | 1.3739 | 1077.7
m1 = 0.1053 | 657.342 | 1.374 | 1077.7
m1 = 0.1104 | 657.441 | 1.3741 | 1077.8
